Laboratory results as given in ChEMBL document CHEMBL3286258, “Medicinal chemistry of inhibitors of 11β-hydroxysteroid dehydrogenase type 1 (11β-HSD1)” (J Med Chem, 2014).

Experiments:
Mus musculus [1] = test: In vivo inhibition of 11beta-HSD1 in mouse assessed as inhibition of cortisone to cortisol conversion at 100 mg/kg relative to control; type: functional
Mus musculus [2] = test: In vivo inhibition of 11beta-HSD1 in mouse assessed as inhibition of cortisone to cortisol conversion at 5 mg/kg relative to control; type: functional
[3] = Oral bioavailability in rat; type: ADME, organism-based; settings: in vivo
[4] = Clearance in rat; type: ADME, organism-based; settings: in vivo
Mus musculus [5] = test: Ex vivo inhibition of 11beta-HSD1 in mouse fat at 20 mg/kg relative to control; type: functional
[6] = Inhibition of cytochrome P450 (unknown origin); type: ADME, Homo sapiens
[7] = molecular target: 11-beta-hydroxysteroid dehydrogenase 1 (Homo sapiens, UniProt P28845); test: Inhibition of human 11beta-HSD1
Sequence of 11-beta-hydroxysteroid dehydrogenase 1 (Homo sapiens, UniProt P28845) (P28845 whole entry): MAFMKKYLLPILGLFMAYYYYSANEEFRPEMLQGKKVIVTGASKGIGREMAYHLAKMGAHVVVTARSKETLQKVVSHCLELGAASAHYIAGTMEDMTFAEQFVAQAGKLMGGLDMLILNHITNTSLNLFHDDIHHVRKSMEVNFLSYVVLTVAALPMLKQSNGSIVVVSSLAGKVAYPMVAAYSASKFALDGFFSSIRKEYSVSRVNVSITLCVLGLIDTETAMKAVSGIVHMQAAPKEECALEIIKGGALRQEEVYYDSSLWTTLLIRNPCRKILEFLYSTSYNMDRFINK

[8] = molecular target: T1, 11-beta-hydroxysteroid dehydrogenase type 2 (Mus musculus, UniProt P51661); test: Inhibition of mouse 11beta-HSD2
T1 sequence (P51661 whole entry): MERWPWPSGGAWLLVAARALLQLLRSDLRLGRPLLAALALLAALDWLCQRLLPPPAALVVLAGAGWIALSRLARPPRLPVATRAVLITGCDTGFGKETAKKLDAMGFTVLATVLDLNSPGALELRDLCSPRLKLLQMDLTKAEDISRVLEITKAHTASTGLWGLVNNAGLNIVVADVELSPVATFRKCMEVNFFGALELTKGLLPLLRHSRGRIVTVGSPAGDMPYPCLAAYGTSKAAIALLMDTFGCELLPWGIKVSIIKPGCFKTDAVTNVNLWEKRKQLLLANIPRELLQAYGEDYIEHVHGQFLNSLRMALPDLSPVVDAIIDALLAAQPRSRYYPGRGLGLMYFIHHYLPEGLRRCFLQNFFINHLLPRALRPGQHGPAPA

Mus musculus [9] = test: Reduction in body weight in diet-induced obese mouse model at 20 mg/kg bid for 11 days relative to vehicle-treated control; type: functional; design: scale not given: the % may be the effect or the level left
Mus musculus [10] = test: Reduction in cumulative food intake in diet-induced obese mouse model at 20 mg/kg bid for 11 days relative to vehicle-treated control; type: functional; design: scale not given: the % may be the effect or the level left
Mus musculus [11] = test: Reduction in postprandial blood glucose level in high fat diet-fed STZ-induced diabetes mouse model at 30 mg/kg bid for 9 days relative to vehicle-treated control; type: functional; design: scale not given: the % may be the effect or the level left
Mus musculus [12] = test: Reduction in fasting blood glucose level in diet-induced obese mouse model at 20 mg/kg bid for 11 days relative to vehicle-treated control; type: functional; design: scale not given: the % may be the effect or the level left
[13] = molecular target: T2, 11-beta-hydroxysteroid dehydrogenase type 2 (Homo sapiens, UniProt P80365); test: Inhibition of human 11beta-HSD2
T2 sequence (P80365 whole entry): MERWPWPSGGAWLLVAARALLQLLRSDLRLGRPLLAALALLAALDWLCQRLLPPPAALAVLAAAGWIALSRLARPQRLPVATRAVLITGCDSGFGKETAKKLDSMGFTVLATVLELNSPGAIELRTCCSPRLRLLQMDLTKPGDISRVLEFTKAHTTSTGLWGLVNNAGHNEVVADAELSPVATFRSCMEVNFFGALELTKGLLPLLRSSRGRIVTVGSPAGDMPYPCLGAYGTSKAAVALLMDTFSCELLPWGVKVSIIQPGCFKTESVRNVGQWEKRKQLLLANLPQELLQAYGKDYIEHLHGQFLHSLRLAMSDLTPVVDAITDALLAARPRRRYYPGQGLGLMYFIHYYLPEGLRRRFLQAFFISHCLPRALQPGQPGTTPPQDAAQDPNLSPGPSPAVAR

Mus musculus [14] = test: In vivo inhibition of 11beta-HSD1 in mouse assessed as inhibition of [3H]cortisone to [3H]cortisol conversion at 10 mg/kg, po measured after 4 hrs relative to control; type: functional
Mus musculus [15] = test: Reduction in aortic total cholesterol accumulation in high fat diet-fed mouse model at 10 mg/kg/day for 8 weeks relative to vehicle-treated control; design: scale not given: the % may be the effect or the level left
Mus musculus [16] = test: In vivo inhibition of 11beta-HSD1 in mouse assessed as inhibition of [3H]cortisone to [3H]cortisol conversion at 10 mg/kg, po measured after 1 hr relative to control; type: functional
Mus musculus [17] = test: Reduction in fasting blood glucose level in high fat diet-fed STZ-induced diabetes mouse model at 30 mg/kg bid for 9 days relative to vehicle-treated control; type: functional; design: scale not given: the % may be the effect or the level left
[18] = Inhibition of N-terminal His-tagged full length dog 11beta-HSD1 assessed as inhibition of cortisone to cortisol conversion preincubated for 25 mins measured after 2 hrs by HTRF assay; design: species or system Canis lupus familiaris
[19] = Oral bioavailability in mouse; type: ADME, organism-based; settings: in vivo
[20] = molecular target: T3, 11-beta-hydroxysteroid dehydrogenase 1 (Mus musculus, UniProt P50172); test: Inhibition of mouse 11beta-HSD1
T3 sequence (P50172 whole entry): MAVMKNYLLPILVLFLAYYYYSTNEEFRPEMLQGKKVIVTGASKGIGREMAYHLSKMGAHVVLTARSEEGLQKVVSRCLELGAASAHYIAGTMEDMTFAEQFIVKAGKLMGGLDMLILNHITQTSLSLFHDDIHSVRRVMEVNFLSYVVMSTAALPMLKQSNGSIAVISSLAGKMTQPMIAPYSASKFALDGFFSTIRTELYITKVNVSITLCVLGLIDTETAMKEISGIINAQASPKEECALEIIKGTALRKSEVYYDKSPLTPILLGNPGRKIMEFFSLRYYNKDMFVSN

[21] = Clearance in mouse; type: ADME, organism-based; settings: in vivo
Mus musculus [22] = organism: Mus musculus; test: Reduction in liver corticosterone level in adrenalectomized mouse model; type: functional
[23] = molecular target: 11-beta-hydroxysteroid dehydrogenase 1 (Rattus norvegicus, UniProt P16232); test: Inhibition of rat 11beta-HSD1 expressed in HEK293 cells; type: cell-based
Sequence of 11-beta-hydroxysteroid dehydrogenase 1 (Rattus norvegicus, UniProt P16232) (P16232 whole entry): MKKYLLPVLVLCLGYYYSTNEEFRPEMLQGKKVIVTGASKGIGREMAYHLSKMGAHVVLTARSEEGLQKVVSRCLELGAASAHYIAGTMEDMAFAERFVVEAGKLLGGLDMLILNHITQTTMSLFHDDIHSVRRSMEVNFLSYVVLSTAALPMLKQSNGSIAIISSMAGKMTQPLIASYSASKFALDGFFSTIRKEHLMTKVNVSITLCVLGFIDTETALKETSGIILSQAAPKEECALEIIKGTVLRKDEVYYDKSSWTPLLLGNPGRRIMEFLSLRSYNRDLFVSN

[24] = molecular target: T3, 11-beta-hydroxysteroid dehydrogenase 1; test: Inhibition of mouse 11beta-HSD1 expressed in HEK293 cells; type: cell-based
Homo sapiens [25] = organism: Homo sapiens; test: Toxicity in type 2 diabetic patient assessed as increase in circulating adrenal androgen at 6 mg/day relative to placebo-control; type: organism-based; settings: in vivo
Homo sapiens [26] = organism: Homo sapiens; test: Reduction in hBA1c in type 2 diabetic patient; type: functional; design: scale not given: the % may be the effect or the level left
Homo sapiens [27] = organism: Homo sapiens; test: Toxicity in type 2 diabetic patient assessed as increase in LDL-cholesterol level at 6 mg/day relative to placebo-control; type: organism-based; settings: in vivo
Cynomolgus monkey [28] = test: Reduction in plasma insulin level in cynomolgus monkey at 0.1 to 3 mg/kg; type: functional, Macaca fascicularis; settings: dose mg/kg 0.1-3
[29] = Tmax in healthy human by 14 day test; type: ADME, organism-based; settings: in vivo
[30] = Clearance in healthy human by 14 day test; type: ADME, organism-based; settings: in vivo
[31] = Elimination half life in healthy human by 14 day test; type: ADME, organism-based; settings: in vivo, read-out: beta t1/2 (converted)
Homo sapiens [32] = organism: Homo sapiens; test: Reduction in 5alpha/5beta-tetrahydrocortisol to tetrahydrocortisone ratio in healthy human at 15 mg qd relative to control; type: functional
[33] = Drug excretion in healthy human urine; type: ADME, tissue-based; settings: read-out: Drug excretion
Homo sapiens [34] = organism: Homo sapiens; test: Inhibition of prednisone to prednisolone conversion in healthy human at 15 mg qd relative to control; type: functional
Cynomolgus monkey [35] = test: In vivo inhibition of 11beta-HSD1 in cynomolgus monkey assessed as inhibition of prednisone to prednisolone conversion at 0.1 to 3 mg/kg relative to control; type: functional, Macaca fascicularis; settings: dose mg/kg 0.1-3
Mus musculus [36] = test: Reduction in plasma glucose level in ob/ob mouse at 200 mg/kg/day for 5 days measured after 5 days; type: functional; design: scale not given: the % may be the effect or the level left
[37] = molecular target: Voltage-gated inwardly rectifying potassium channel KCNH2 (Homo sapiens, UniProt Q12809); test: Inhibition of human ERG
Sequence of Voltage-gated inwardly rectifying potassium channel KCNH2 (Q12809 whole entry): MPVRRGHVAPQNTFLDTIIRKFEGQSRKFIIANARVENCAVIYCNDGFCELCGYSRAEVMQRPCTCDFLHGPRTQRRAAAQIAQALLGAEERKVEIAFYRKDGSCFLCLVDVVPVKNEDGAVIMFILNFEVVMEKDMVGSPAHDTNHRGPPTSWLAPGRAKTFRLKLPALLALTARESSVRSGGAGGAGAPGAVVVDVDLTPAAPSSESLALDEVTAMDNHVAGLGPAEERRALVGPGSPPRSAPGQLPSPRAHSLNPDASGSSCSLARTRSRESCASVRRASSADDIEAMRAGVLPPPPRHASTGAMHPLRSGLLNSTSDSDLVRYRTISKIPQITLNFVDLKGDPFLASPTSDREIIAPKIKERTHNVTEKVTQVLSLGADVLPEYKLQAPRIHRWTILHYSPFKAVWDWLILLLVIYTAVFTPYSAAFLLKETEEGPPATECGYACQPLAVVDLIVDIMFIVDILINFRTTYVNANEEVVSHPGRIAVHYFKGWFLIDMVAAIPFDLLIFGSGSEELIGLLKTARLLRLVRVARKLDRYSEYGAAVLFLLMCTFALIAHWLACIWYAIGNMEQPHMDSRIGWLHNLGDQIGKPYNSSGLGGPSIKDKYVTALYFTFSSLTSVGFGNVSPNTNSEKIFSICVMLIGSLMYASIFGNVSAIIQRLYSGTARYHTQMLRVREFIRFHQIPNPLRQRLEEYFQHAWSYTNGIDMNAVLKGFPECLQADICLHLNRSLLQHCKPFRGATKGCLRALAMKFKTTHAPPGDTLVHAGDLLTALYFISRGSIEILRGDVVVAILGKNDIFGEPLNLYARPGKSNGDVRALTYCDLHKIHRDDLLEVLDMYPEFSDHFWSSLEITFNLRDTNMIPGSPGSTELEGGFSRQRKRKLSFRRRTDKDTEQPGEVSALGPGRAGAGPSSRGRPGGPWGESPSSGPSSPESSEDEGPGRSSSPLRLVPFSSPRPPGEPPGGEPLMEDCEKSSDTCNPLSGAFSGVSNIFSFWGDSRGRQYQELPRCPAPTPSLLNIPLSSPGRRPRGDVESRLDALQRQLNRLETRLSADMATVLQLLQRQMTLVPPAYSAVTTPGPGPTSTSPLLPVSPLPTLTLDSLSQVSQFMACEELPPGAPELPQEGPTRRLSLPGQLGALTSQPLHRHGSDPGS

Homo sapiens [38] = organism: Homo sapiens; test: Reduction in HDL-cholesterol in overweight/obese patient with hypertension at 7 mg relative to control; type: functional; design: scale not given: the % may be the effect or the level left
Homo sapiens [39] = organism: Homo sapiens; test: Toxicity in overweight/obese patient with hypertension assessed as increase in adrenal androgen level at 7 mg/day relative to control; type: organism-based; settings: in vivo
Homo sapiens [40] = organism: Homo sapiens; test: Reduction in LDL-cholesterol in overweight/obese patient with hypertension at 7 mg relative to control; type: functional; design: scale not given: the % may be the effect or the level left
Homo sapiens [41] = organism: Homo sapiens; test: Reduction in body weight in overweight/obese patient with hypertension at 7 mg relative to control; type: functional

CCN1CCC[C@@H]1C(=O)NC1C2CC3CC(C2)CC1C3 (stereo partly specified)
%max (Mus musculus [1]): 82% | %max (Mus musculus [2]): 50%

CC1CN(CC(=O)N[C@H]2C3CC4CC2C[C@](C(N)=O)(C4)C3)S(=O)(=O)N(c2c(Cl)cc(Cl)cc2Cl)C1 (stereo partly specified)
bioavailability [3]: 69% | clearance [4]: 11.7 mL/min/kg | inhibition in vivo at 20 mg/kg (Mus musculus [5]): 96% | IC50 [6]: > 100000 nM

C1CCc2nnc(C34CC5CC(CC(C5)C3)C4)n2CC1
IC50 [7]: 8 nM | IC50 [8]: > 10000 nM | Activity (Mus musculus [9]): 7% | Activity (Mus musculus [10]): 12% | Activity (Mus musculus [11]): 37% | Activity (Mus musculus [12]): 15% | IC50 [13]: > 3000 nM | inhibition in vivo at 10 mg/kg (Mus musculus [14]): 17% | Activity (Mus musculus [15]): 84% | inhibition in vivo at 10 mg/kg (Mus musculus [16]): 59% | Activity (Mus musculus [17]): 37%

CSc1nc(N2C[C@@H]3[C@H](C2)[C@H]3C(=O)O)ccc1C(=O)NC12CC3CC(CC(C3)C1)C2
IC50 [18]: 120 nM

CC1(C)C(=O)N(c2cccc(S(C)(=O)=O)c2)C1c1cccc2nccnc12 (stereo unspecified)
bioavailability [19]: 22% | IC50 [20]: 350 nM | clearance [21]: 42 mL/min/kg

CN(C(=O)c1csc(CNS(=O)(=O)c2cccc(Cl)c2)n1)C1CCCCCC1
IC50 [20]: 307 nM

Cc1c(Cl)cccc1S(=O)(=O)N1CCC[C@H](C(=O)N[C@H]2C[C@@H]3CC[C@@]2(C)C3(C)C)C1
IC50 [20]: 18 nM

Cc1c(Cl)cccc1S(=O)(=O)N1CCCC[C@@H]1C(=O)N[C@H]1C2CC3CC1C[C@](O)(C3)C2
bioavailability [19]: 3% | IC50 [20]: 15 nM | clearance [21]: 130 mL/min/kg

COc1cc(C(=O)Nc2ccc(C(=O)N3CCCCC3)c(O)c2)cc(OC)c1OC
inhibition (INH) (Mus musculus [22]): 73%

CS(=O)(=O)NCCC(=O)N1CCC(c2cc(C(=O)N3CCC[C@H]4CCCC[C@H]43)cs2)CC1
IC50 [23]: 287 nM | IC50 [24]: 528 nM

CCN(CC)C(=O)Cc1csc(NS(=O)(=O)c2cccc(Cl)c2C)n1
IC50 [13]: > 10000 nM

F[C@H]1C[C@](c2ccc(Cl)cc2)(c2nnc(C3CC3)n2C2CC2)C1
Activity (Homo sapiens [25]): 20% | Activity (Homo sapiens [26]): -0.3% | Activity (Homo sapiens [27]): 10.4%

Cc1c(Cl)cccc1S(=O)(=O)Nc1nc(CC(=O)N2CCN(C)CC2)cs1
bioavailability [19]: 21% | IC50 [13]: > 10000 nM

N#Cc1ccc(-c2ccc(S(=O)(=O)Nc3cccc(N)n3)cc2)cc1
%max (Cynomolgus monkey [28]): 60% | Tmax [29]: 1 h | clearance [30]: 16.7 mL/min | half-life [31]: 30 h | %max (Homo sapiens [32]): 26% | dose excreted [33]: < 1% | %max (Homo sapiens [34]): 37% | %max (Cynomolgus monkey [35]): 87%

O=C(CN1C(C(=O)c2ccccc2)=C(O)c2ccccc2S1(=O)=O)c1ccccc1
Activity (Mus musculus [36]): -27% | IC50 [37]: > 100000 nM

Cn1c(-c2ccccc2)nnc1C12CC3CC(CC(C3)C1)C2 [FIG 1]
inhibition in vivo at 10 mg/kg (Mus musculus [14]): 47% | inhibition in vivo at 10 mg/kg (Mus musculus [16]): 85%

CCS(=O)(=O)CCCC12CCC(c3nnc(-c4ccccc4C(F)(F)F)n3C)(CC1)CC2 [MK-0736]
Activity (Homo sapiens [38]): -6.3% | fold change (FC) (Homo sapiens [39]): 2 | Activity (Homo sapiens [40]): -12.3% | Activity (Homo sapiens [41]): -1.4 kg
